By IC50 is commonly meant the concentration that gives 50% inhibition. Broadly, the GI50 is the concentration that inhibits growth by half. Lower therefore signals greater sensitivity of the cells. As a reminder, the inhibition is the drop in the measured response relative to a control, in per cent.

Structures are written as SMILES. “And” between values parts separate entries of the source, which are not always exact repeats. Equal values may be shown once.

One assay deals with T1, c-KIT V560G/D816V (Homo sapiens, UniProt P10721, D816V/V560G).
T1 construct: purchased Promega VA7063
Kind of assay: ADP-Glo kinase assay on c-KIT V560G/D816V. Type of assay: biochemical. As to the method:
Biochemical kinase assays on c-KIT protein kinase were performed at Reaction Biology Corp. (San Diego, CA, USA). […] The kinase assay followed the manufacturer’s instruction. IC50 values were calculated by GraphPad prism 8.0 software (GraphPad Software, San Diego, CA, USA).
A general note: ADP-Glo turns the ADP formed in a reaction into a luminescent signal.

Assay [1] has as its system GIST-T1 cells. Kind of assay: Cell viability assay (CellTiter-Glo). Type of assay: cell-based. Particulars: Homo sapiens, GISTT1; 72 h; concentration causing half-maximal growth inhibition. As to the method:
(§1) GIST-T1 (Cosmobio, Tokyo, Japan, # PMC-GIST01C-COS) cells were cultured in DMEM (Welgene, # LM001-05) and HMC1.2 (Merck, Darmstadt, Germany, # SCC062) cells were cultured in IMDM (Welgene, # LM004-01). Parental Ba/F3 (DSMZ, Braunschweig, Germany, # ACC300) cells were cultured in RPMI (Welgene, # LM011-51) with 10 ng IL-3/mL (Enzo, # ALX-201-821). The culture media was supplemented with 10% fetal bovine serum and 1% penicillin/streptomycin solution. The cells were maintained in a humidified atmosphere containing 5% CO2 at 37 °C.
(§2) Cells (GIST-T1: 5.0 × 10^3; HMC1.2: 1 × 10^4) were seeded in 96-well plates. Each compound was treated in each well at 10 dose points of 3-fold serial dilution. After treatment with each compound for 72 h, CellTiter-Glo solution (Promega, # G7572) was added to each well. Anti-proliferation activity was measured the luminescence using a 96-well plate reader (EnVision 2013).
A general note: ATP-based viability assays read luminescence as a measure of living cells.

For assay [2], the system named is HMC1.2 cells. Nature of the assay: Cell viability assay (CellTiter-Glo). Particulars: Homo sapiens, 72 h. Type of assay: cell-based, human. On the procedure:
as §1, §2

The test system of assay [3] is c-KIT D816V Ba/F3 cells. Kind of assay: Anti-proliferative activity on Ba/F3 cells. Type of assay: cell-based. Particulars: Mus musculus, BaF3.
The subject of assay [4] is c-KIT auto-phosphorylation in HMC1.2 cells. Kind of assay: Western blot of c-KIT signaling. Type of assay: cell-based, human. To be noted: 10 μM. As to the method: (§3) Cells were harvested and lysed using RIPA buffer containing 50 mM HEPES (pH 7.4), 1% Triton X-100, 2 mM EDTA, 150 mM NaCl, 2.5 mM NaF, 5 mM Na3VO4, and protease inhibitor cocktail tablet (Roche, # 11–878-580–001). Proteins were separated and transferred to an NC membrane. The membranes were blocked using 5% skim milk in TBS-T buffer. The p-c-KIT (Tyr703, # 3073), p-AKT (Ser473, # 9271), p-ERK (Thr202/Tyr204, # 8544), ERK (# 4695), p-PLCγ (Tyr783, # 14008), p-STAT3 (Tyr705, # 4074), and PARP (# 9542) antibodies were obtained from Cell Signaling Technologies. The β-actin (# sc-47778) and STAT3 (# sc-482) antibodies were obtained from Santa Cruz Biotechnology. AKT (A18120) antibody was purchased from ABclonal. Each primary antibody was incubated overnight at 4 °C. The secondary antibody (GenDEPOT) was incubated for 1 h at room temperature. Proteins were detected using ECL substrate.
On the technique in general: Immunoblotting shows a protein as a band on a membrane.

The subject of assay [5] is phosphorylated c-KIT (Tyr703) and downstream signaling in GIST-T1 cells. Nature of the assay: Western blot of c-KIT signaling. Type of assay: cell-based, human. On the procedure: as §3
Assay [6] has as its system c-KIT auto-phosphorylation in c-KIT D816V Ba/F3 cells. Nature of the assay: Western blot of c-KIT signaling. Type of assay: cell-based. To be noted: 10 μM. On the procedure:
as §3

Assay [7] relates to c-KIT D816V Ba/F3 cells. Kind of assay: Apoptosis analysis (annexinV/PI flow cytometry). Type of assay: cell-based. Particulars: c-KIT D816V Ba/F3, 1 μM. As to the method: (§4) After compound treatment in GIST-T1 and HMC1.2 cells for 24 h, cells were fixed with 70% cold ethanol. Then, cells were incubated with 50 μg propidium iodide/mL solution (PI, Sigma) containing 1 mg RNase A/mL for 30 min in the dark. Cell cycle arrest was analyzed (BD Accuri), and data were processed using BD Accuri^TM C6 software. For apoptosis analysis, compound treatment for 24–48 h, cells were harvested and stained with annexinV and PI solution. 1 × 10^5 cells were analyzed using flow cytometric analysis.

In assay [8] the test system is GIST-T1 cells. Kind of assay: Cell cycle arrest analysis (PI flow cytometry). To be noted: GIST-T1, 0.01 μM. Type of assay: cell-based, human. As to the method: as §4
Assay [9] has as its system HMC1.2 cells. Nature of the assay: Cell cycle arrest analysis (PI flow cytometry). Type of assay: cell-based, human. Particulars: HMC1.2, 0.5 μM, 24 h. On the procedure: as §4
Assay [10] has as its system GIST-T1 cells. Nature of the assay: Soft agar assay (anchorage-independent growth). Type of assay: cell-based, human. To be noted: 3 weeks. On the procedure:
Anchorage-independent growth was assessed by determining colony formation on soft agar. GIST-T1 cells in DMEM media containing 0.7% agar were plated at 5,000 cells per well. Cells were treated with each compound for 3 weeks, and the media were changed every 3 days. Colonies were stained using iodonitrotetrazolium chloride (Sigma Aldrich). The average number colonies were counted using ImageJ software (version 1.53e, National Institutes of Health, Bethesda, MD, USA)

For another assay, the target named is T2, BRK (Homo sapiens, UniProt Q13882).
T2 construct: purchased Reaction Biology Corp
Kind of assay: Kinase panel profiling. Type of assay: biochemical. To be noted: 10 μM ATP. On the procedure: (§5) Kinase panel profiling was conducted by Reaction Biology Corp. (San Diego, CA, USA). A single dose (1.0 μM) of 6r was tested against 371 recombinant human kinases in the presence of 10 μM ATP.

The next assay deals with T3, CDK19/cyclin C (Homo sapiens, UniProt Q9BWU1).
T3 construct: purchased Reaction Biology Corp
Nature of the assay: Kinase panel profiling. Type of assay: biochemical. To be noted: 10 μM ATP. As to the method:
as §5

The next assay has as its target T4, CDK9/cyclin T1 (Homo sapiens, UniProt P50750).
T4 construct: purchased Reaction Biology Corp
Kind of assay: Kinase panel profiling. Type of assay: biochemical. Particulars: 10 μM ATP. On the procedure: as §5

The target of the next assay is T5, GSK3b (Homo sapiens, UniProt P49841).
T5 construct: purchased Reaction Biology Corp
Kind of assay: Kinase panel profiling. Type of assay: biochemical. To be noted: 10 μM ATP. On the procedure: as §5

Another assay concerns the target T6, MARK3 (Homo sapiens, UniProt P27448).
T6 construct: purchased Reaction Biology Corp
Nature of the assay: Kinase panel profiling. Type of assay: biochemical. Particulars: 10 μM ATP. On the procedure:
as §5

For a further assay, the target named is T7, MLK2/MAP3K10 (Homo sapiens, UniProt Q02779).
T7 construct: purchased Reaction Biology Corp
Nature of the assay: Kinase panel profiling. Type of assay: biochemical. To be noted: 10 μM ATP. As to the method:
as §5

In the next assay the target is T8, MRCKb/CDC42BPB (Homo sapiens, UniProt Q9Y5S2).
T8 construct: purchased Reaction Biology Corp
Nature of the assay: Kinase panel profiling. Particulars: 10 μM ATP. Type of assay: biochemical. On the procedure: as §5

In a further assay the target is T9, PKG1a (Homo sapiens, UniProt Q13976).
T9 construct: purchased Reaction Biology Corp
Nature of the assay: Kinase panel profiling. Type of assay: biochemical. Particulars: 10 μM ATP. As to the method: as §5

In the next assay the target is T10, RSK3 (Homo sapiens, UniProt Q15349).
T10 construct: purchased Reaction Biology Corp
Kind of assay: Kinase panel profiling. Type of assay: biochemical. Particulars: 10 μM ATP. As to the method:
as §5

`Cc1ccc(NC(=O)c2ccc(CN3CCN(C)CC3)c(C(F)(F)F)c2)cc1-c1cnc2sc(N)nc2c1` [6r] registered an IC50 at c-KIT V560G/D816V (ADP-Glo kinase assay, 10 μM ATP) of 4770 ± 380 nM. Moreover, the “fold higher enzymatic inhibitory activity against c-KIT V560G/D816V compared with imatinib” value at c-KIT V560G/D816V (versus imatinib) is 4.9- to 8.0 fold and 8.0 fold. Also, the concentration for 50% growth inhibition (GI50) turned out to be 10 nM in the assay with GIST-T1 cells [1], 1150 ± 960 nM in the assay on HMC1.2 cells [2] and 1110 ± 470 nM in the assay on c-KIT D816V Ba/F3 cells [3]. Besides, the c-KIT auto-phosphorylation result in assay [4] and in assay [6] was “completely inhibited” in each case. Also, the “levels of phosphorylated c-KIT (Tyr703) and downstream mediators p-AKT, p-ERK, p-PLCγ, p-STAT3” value in assay [5] was “remarkably inhibited”. Moreover, in the assay on c-KIT D816V Ba/F3 cells [7], the “production of apoptotic cells” value is “remarkably induced”. The “G0/G1 arrest induced compared to control” value in the assay on GIST-T1 cells [8] was 25–35%. Also, in the assay on HMC1.2 cells [9], the “G0/G1 arrest compared with imatinib” value is recorded as “more strongly”. The anchorage-independent growth result is “completely suppressed” with GIST-T1 cells [10] (GIST-T1, 0.05 μM, compared to control) and “dramatic inhibition” in the assay with GIST-T1 cells [10] (GIST-T1, two different concentrations). The inhibition at 1 µM came to 37.5% against BRK; 12.8% against CDK19/cyclin C; 0% at CDK9/cyclin T1; 12.9% against GSK3b; 0% at MARK3; 13.4% against MLK2/MAP3K10. Also, the inhibition at 1 µM at MRCKb/CDC42BPB worked out at 2.4%; on PKG1a, 10.1%; on RSK3 it was 5.4%.

Values taken from article PMC9817970 (Cancers, 2022).
